Experimental data reported in patent publication US7037644B1, “Means and methods for monitoring non-nucleoside reverse transcriptase inhibitor antiretroviral therapy and guiding therapeutic decisions in the treatment of HIV/AIDS” (ViroLogic, Inc., priority 1998, dated 2006).
“Also recorded” adds a separate entry of the source.

These compounds were tested on RTV-B clone 1 (RT A98G, G190S) (assay: Phenotypic susceptibility assay (patient RTV)). Conditions: below 1 = increased susceptibility.
Format: cell-based, HIV-1
Excerpt: (§1) The resistance test vectors containing a functional luciferase gene cassette were constructed and host cells were transfected with the resistance test vector DNA. The resistant test vectors contained patient-derived reverse transcriptase and protease sequences that were either susceptible or resistant to the antiretroviral agents, such as nucleoside reverse transcriptase inhibitors, non-nucleoside reverse transcriptase inhibitors and protease inhibitors. The resistance test vector viral particles produced by transfecting the resistance test vector DNA into host cells, either in the presence or absence of protease inhibitors, were used to infect target host cells grown either in the absence of NRTI or NNRTI or in the presence of increasing concentrations of the drug. The amount of luciferase activity produced in infected target host cells in the presence of drug was compared to the amount of luciferase produced in infected target host cells in the absence of drug. […] The IC50 values were determined by plotting percent drug inhibition vs. log10 drug concentration.
(§2) Host cells were seeded in 10-cm-diameter dishes and were transfected several days after plating with resistance test vector plasmid DNA and the envelope expression vector. […] HIV capsid protein (p24) levels in the harvested cell culture media were determined by an EIA method as described by the manufacturer (SIAC; Frederick, Md.). […] The inhibitory effect of the drug was determined using the following equation: % luciferase inhibition=1−(RLUluc [drug]÷RLUluc)×100 where RLUluc [drug] is the relative light unit of luciferase activity in infected cells in the presence of drug and RLUluc is the Relative Light Unit of luciferase activity in infected cells in the absence of drug. […]
A resistant test vector was constructed as described in Example 1 from a patient sample designated B. The anti-retroviral treatment this patient received is unknown. […] An IC50 was determined for the resistance test vector clone for each drug tested. […]

SMILES	change in susceptibility (fold, IC50)
CC(C)Nc1cccnc1N1CCN(C(=O)c2cc3cc(NS(C)(=O)=O)ccc3[nH]2)CC1 [delavirdine]	0.55 fold
O=C1Nc2ccc(Cl)cc2[C@@](C#CC2CC2)(C(F)(F)F)O1 [efavirenz]	250 fold
Cc1ccnc2c1NC(=O)c1cccnc1N2C1CC1 [nevirapine]	640 fold

These compounds were tested on RTV-1060, patient 98-1060 (RT K101E, G190S) (assay: Phenotypic susceptibility assay (patient RTV)). Conditions: patient RTV pool.
Format: cell-based, HIV-1
Excerpt: as §1, §2
A resistance test vector was constructed as described in Example 1 from a patient sample designated 98-644. […] RTV-644 and RTV-1060 were then tested in a phenotypic, assay to determine accurately and quantitatively the level of susceptibility to a panel of anti-retroviral drugs. […]

SMILES	decrease in susceptibility (fold, IC50)
CC(C)Nc1cccnc1N1CCN(C(=O)c2cc3cc(NS(C)(=O)=O)ccc3[nH]2)CC1 [delavirdine]	1.5 fold
O=C1Nc2ccc(Cl)cc2[C@@](C#CC2CC2)(C(F)(F)F)O1 [efavirenz]	900 fold
Cc1ccnc2c1NC(=O)c1cccnc1N2C1CC1 [nevirapine]	greater than 800 fold

These compounds were tested on Y181I-RTV (assay: Phenotypic susceptibility assay (site directed mutant RTV)). Conditions: Y181I alone.
Format: cell-based, HIV-1
Excerpt: (§3) The resistance test vectors containing a functional luciferase gene cassette were constructed and host cells were transfected with the resistance test vector DNA. The resistant test vectors contained patient-derived reverse transcriptase and protease sequences that were either susceptible or resistant to the antiretroviral agents, such as nucleoside reverse transcriptase inhibitors, non-nucleoside reverse transcriptase inhibitors and protease inhibitors. The resistance test vector viral particles produced by transfecting the resistance test vector DNA into host cells, either in the presence or absence of protease inhibitors, were used to infect target host cells grown either in the absence of NRTI or NNRTI or in the presence of increasing concentrations of the drug. The amount of luciferase activity produced in infected target host cells in the presence of drug was compared to the amount of luciferase produced in infected target host cells in the absence of drug. Drug resistance was measured as the amount of drug required to inhibit by 50% the luciferase activity detected in the absence of drug (inhibitory concentration 50%, IC50). The IC50 values were determined by plotting percent drug inhibition vs. log10 drug concentration.
(§4) Host cells were seeded in 10-cm-diameter dishes and were transfected several days after plating with resistance test vector plasmid DNA and the envelope expression vector. Transfections were performed using a calcium-phosphate precipitation procedure. The cell culture media containing the DNA precipitate was replaced with fresh medium, from one to 24 hours, after transfection. Cell culture media containing resistance test vector viral particles was harvested one to four days after transfection and was passed through a […] filter before being stored at […]. HIV capsid protein (p24) levels in the harvested cell culture media were determined by an EIA method as described by the manufacturer (SIAC; Frederick, Md.). Before infection, target cells (293 and 293/T) were plated in cell culture media. Control infections were performed using cell culture media from mock transfections (no DNA) or transfections containing the resistance test vector plasmid DNA without the envelope expression plasmid. One to three or more days after infection the media was removed and cell lysis buffer (Promega) was added to each well. Cell lysates were assayed for luciferase activity (FIG. 3). The inhibitory effect of the drug was determined using the following equation: % luciferase inhibition=1−(RLUluc [drug]÷RLUluc)×100 where RLUluc [drug] is the relative light unit of luciferase activity in infected cells in the presence of drug and RLUluc is the Relative Light Unit of luciferase activity in infected cells in the absence of drug. IC50 values were obtained from the sigmoidal curves that were generated from the data by plotting the percent inhibition of luciferase activity vs. the log10 drug concentration. The drug inhibition curves are shown in (FIG. 3).
The Y181I mutationwas introduced into the resistance test vector using the mega-primer method for site-directed mutagenesis (Sakar and Sommar, Ibid). A resistance test vector containing the Y181I mutation (Y181I-RTV) was then tested using the phenotypic assay described earlier and the results were compared to those determined using a genetically defined resistance test vector that was wild type at position 181. We determined the pattern of phenotypic susceptibility to the NNRTIs, delavirdine, nevirapine and efavirenz, in the Y181I-RTV.

SMILES	loss of susceptibility (fold, IC50) vs wild type control RTV
CC(C)Nc1cccnc1N1CCN(C(=O)c2cc3cc(NS(C)(=O)=O)ccc3[nH]2)CC1 [delavirdine]	20 fold
O=C1Nc2ccc(Cl)cc2[C@@](C#CC2CC2)(C(F)(F)F)O1 [efavirenz]	1.4 fold
Cc1ccnc2c1NC(=O)c1cccnc1N2C1CC1 [nevirapine]	740 fold

Same assay, conditions: mutation at codon 181 (isoleucine)

SMILES	change in susceptibility
CC(C)Nc1cccnc1N1CCN(C(=O)c2cc3cc(NS(C)(=O)=O)ccc3[nH]2)CC1 [delavirdine]	moderate decrease
O=C1Nc2ccc(Cl)cc2[C@@](C#CC2CC2)(C(F)(F)F)O1 [efavirenz]	no change
Cc1ccnc2c1NC(=O)c1cccnc1N2C1CC1 [nevirapine]	significant decrease

The compounds below were run on E138A-RTV in the same assay as above. Conditions: E138A alone.
Format: cell-based, HIV-1
Excerpt: as §3, §4
(§5) The E138A mutation alone and in combination with Y188L was introduced into resistance test vectors using the mega-primer method for site-directed mutagenesis (Sakar and Sommar, Ibid.). Resistance rest vectors containing the E138A mutation (E138A-RTV) or he E138 mutation along with the […] mutation (E138A-Y188L-RTV) were then tested using the phenotypic assay described earlier and the results were compared to those determined using a genetically defined resistance test vector that was wild type at positions 188 and 138. We determined the pattern of phenotypic susceptibility to the NNRTIs, delavirdine, nevirapine and efavirenz, in the E138A-RTV, Y188L-RTV and E138-Y188L-RTV.

SMILES	change in susceptibility (fold, IC50) vs wild type control RTV
CC(C)Nc1cccnc1N1CCN(C(=O)c2cc3cc(NS(C)(=O)=O)ccc3[nH]2)CC1 [delavirdine]	1.6 fold
O=C1Nc2ccc(Cl)cc2[C@@](C#CC2CC2)(C(F)(F)F)O1 [efavirenz]	1.4 fold
Cc1ccnc2c1NC(=O)c1cccnc1N2C1CC1 [nevirapine]	1.3 fold

What follows are compounds tested on E138A-Y188L-RTV in the same assay as above. Conditions: E138A and Y188L.
Format: cell-based, HIV-1
Excerpt: as §3, §4, §5

SMILES	loss of susceptibility (fold, IC50) vs wild type control RTV
CC(C)Nc1cccnc1N1CCN(C(=O)c2cc3cc(NS(C)(=O)=O)ccc3[nH]2)CC1 [delavirdine]	75 fold
O=C1Nc2ccc(Cl)cc2[C@@](C#CC2CC2)(C(F)(F)F)O1 [efavirenz]	88 fold
Cc1ccnc2c1NC(=O)c1cccnc1N2C1CC1 [nevirapine]	greater than 800 fold

Same assay, conditions: mutations at codons 138 and 188

SMILES	change in susceptibility
CC(C)Nc1cccnc1N1CCN(C(=O)c2cc3cc(NS(C)(=O)=O)ccc3[nH]2)CC1 [delavirdine]	moderate decrease
O=C1Nc2ccc(Cl)cc2[C@@](C#CC2CC2)(C(F)(F)F)O1 [efavirenz]	moderate decrese; also recorded: moderate decrease
Cc1ccnc2c1NC(=O)c1cccnc1N2C1CC1 [nevirapine]	substantial decrease

The compounds below were run on A98G-G190S-RTV in the same assay as above. Conditions: A98G and G190S; below 1 = increased susceptibility.
Format: cell-based, HIV-1
Excerpt: as §3, §4
The A98 and G190S mutations were introduced alone or in combination into the resistance test vector using the mega-primer method for site-directed mutagenesis (Sakar and Sommar, Ibid.). Resistance test vectors containing the A98G mutation (A98G-RTV), the G190S mutation (G190S-RTV) and both mutations (A98G-G190S-RTV) were then tested using the phenotypic assay described earlier and the results were compared to those determined using a genetically defined resistance test vector that was wild type at position 98 and 190. We determined the pattern of phenotypic susceptibility to the NNRTIs, delavirdine, nevirapine and efavirenz, in the three vectors.

SMILES	change in susceptibility (fold, IC50) vs wild type control RTV
CC(C)Nc1cccnc1N1CCN(C(=O)c2cc3cc(NS(C)(=O)=O)ccc3[nH]2)CC1 [delavirdine]	0.8 fold
O=C1Nc2ccc(Cl)cc2[C@@](C#CC2CC2)(C(F)(F)F)O1 [efavirenz]	greater than 250 fold
Cc1ccnc2c1NC(=O)c1cccnc1N2C1CC1 [nevirapine]	greater than 800 fold

Same assay, conditions: mutations at codons 98 and 190

SMILES	change in susceptibility
CC(C)Nc1cccnc1N1CCN(C(=O)c2cc3cc(NS(C)(=O)=O)ccc3[nH]2)CC1 [delavirdine]	increase
O=C1Nc2ccc(Cl)cc2[C@@](C#CC2CC2)(C(F)(F)F)O1 [efavirenz]	substantial decrease
Cc1ccnc2c1NC(=O)c1cccnc1N2C1CC1 [nevirapine]	substantial decrease
